# According to PubChem BioAssay (NCI):
#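 Grown in 96-well plates, cells were treated for 48 hours with each compound at five concentrations. Insufficient inhibition: endpoint recorded as highest concentration tested. TGI denotes the concentration required for complete inhibition of growth.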
# Tests used:
# Assay in all cases: growth of human tumour cells (NCI), 48 h
# [1] = test system: MDA-N
# [2] = test system: OVCAR-3 ovarian
# [3] = test system: A549 NSCLC
# [4] = test system: CAKI-1 renal
# [5] = test system: 786-0 renal
# [6] = test system: RXF 393 renal
# [7] = test system: SK-MEL-5 melanoma
# [8] = test system: NCI/ADR-RES ovarian
# [9] = test system: NCI-H522 lung
# [10] = test system: OVCAR-4 ovarian
# [11] = test system: RPMI-8226 leukemia
# [12] = test system: SK-MEL-2 melanoma
# [13] = test system: K-562 leukemia
# [14] = test system: TK-10 renal
# [15] = test system: NCI-H226 lung
# [16] = test system: SK-OV-3 ovarian
# [17] = test system: MDA-MB-435
# [18] = test system: MDA-MB-231 breast
# [19] = test system: UACC-62 melanoma
# [20] = test system: DU-145 prostate
# [21] = test system: HT29 colon
# [22] = test system: SF-268 CNS
# [23] = test system: CCRF-CEM leukemia
# [24] = test system: SN12C renal
# [25] = test system: SNB-75 CNS
# [26] = test system: U251 CNS
# [27] = test system: COLO 205 colon
# [28] = test system: HS 578T breast
# [29] = test system: M14 melanoma
# [30] = test system: OVCAR-8 ovarian
# [31] = test system: HOP-92 NSCLC
# [32] = test system: SF-295 CNS
# [33] = test system: ACHN renal
# [34] = test system: BT-549 breast
# [35] = test system: SF-539 CNS
# [36] = test system: MCF7 breast
# [37] = test system: SK-MEL-28 melanoma
# [38] = test system: HCT-15 colon
# [39] = test system: NCI-H23 lung
# [40] = test system: SNB-19 CNS
# [41] = test system: EKVX NSCLC
# [42] = test system: HCC-2998 colon
# [43] = test system: NCI-H460 lung
# [44] = test system: IGROV1 ovarian
# [45] = test system: T-47D breast
# [46] = test system: HOP-62 NSCLC
# [47] = test system: A498 renal
# [48] = test system: MOLT-4 leukemia
# [49] = test system: HL-60(TB) leukemia
# [50] = test system: LOX IMVI melanoma
# [51] = test system: PC-3 prostate
# [52] = test system: SW-620 colon
# [53] = test system: MALME-3M melanoma
# [54] = test system: UO-31 renal
# [55] = test system: UACC-257 melanoma
# [56] = test system: KM12 colon
# [57] = test system: OVCAR-5 ovarian
# [58] = test system: SR leukemia
# [59] = test system: HCT-116 colon
structure (smiles),measurement,setting,value
CC(C)(C)c1cc(C(P(=O)(c2ccccc2)c2ccccc2)P(=O)(c2ccccc2)c2ccccc2)cc(C(C)(C)C)c1O,TGI,[1],3.93 µM
same,TGI,[2],5.41 µM
same,TGI,[3],> 8.98 µM
same,TGI,[4],9.9 µM
same,TGI,[5],7.23 µM
same,TGI,[6],7.09 µM
same,TGI,[7],2.94 µM
same,TGI,[8],6.16 µM
same,TGI,[9],5.26 µM
same,TGI,[10],> 10 µM
same,TGI,[11],> 7.73 µM
same,TGI,[12],3.88 µM
same,TGI,[13],9.93 µM
same,TGI,[14],9.87 µM
same,TGI,[15],9.13 µM
same,TGI,[16],> 10 µM
same,TGI,[17],4.39 µM
same,TGI,[18],5.12 µM
same,TGI,[19],3.32 µM
same,TGI,[20],> 10 µM
same,TGI,[21],4.39 µM
same,TGI,[22],> 9.47 µM
same,TGI,[23],7.88 µM
same,TGI,[24],> 9.06 µM
same,TGI,[25],7.39 µM
same,TGI,[26],6.68 µM
same,TGI,[27],3.31 µM
same,TGI,[28],6.27 µM
same,TGI,[29],3.84 µM
same,TGI,[30],8.95 µM
same,TGI,[31],5.65 µM
same,TGI,[32],3.85 µM
same,TGI,[33],> 10 µM
same,TGI,[34],> 8.23 µM
same,TGI,[35],3.88 µM
same,TGI,[36],> 8.8 µM
same,TGI,[37],4.71 µM
same,TGI,[38],6.96 µM
same,TGI,[39],7.3 µM
same,TGI,[40],> 10 µM
same,TGI,[41],> 10 µM
same,TGI,[42],4.45 µM
same,TGI,[43],4.44 µM
same,TGI,[44],5.74 µM
same,TGI,[45],> 10 µM
same,TGI,[46],5.13 µM
same,TGI,[47],5.08 µM
same,TGI,[48],> 8.09 µM
same,TGI,[49],> 8.2 µM
same,TGI,[50],4.04 µM
same,TGI,[51],7.67 µM
same,TGI,[52],> 9.23 µM
same,TGI,[53],6.38 µM
same,TGI,[54],6.99 µM
same,TGI,[55],4.18 µM
same,TGI,[56],3.37 µM
same,TGI,[57],> 6.72 µM
same,TGI,[58],> 8.37 µM
same,TGI,[59],3.23 µM
CCOC(CCNCC(OCC)OCC)OCC,TGI,[1],> 10 µM
same,TGI,[2],> 10 µM
same,TGI,[3],> 10 µM
same,TGI,[4],> 10 µM
same,TGI,[5],> 10 µM
same,TGI,[6],> 10 µM
same,TGI,[7],> 10 µM
same,TGI,[8],> 10 µM
same,TGI,[9],> 10 µM
same,TGI,[10],> 10 µM
same,TGI,[11],> 10 µM
same,TGI,[12],> 10 µM
same,TGI,[13],> 10 µM
same,TGI,[14],> 10 µM
same,TGI,[15],> 10 µM
same,TGI,[16],> 10 µM
same,TGI,[17],> 10 µM
same,TGI,[18],> 10 µM
same,TGI,[19],> 10 µM
same,TGI,[20],> 10 µM
same,TGI,[21],> 10 µM
same,TGI,[22],> 10 µM
same,TGI,[23],> 10 µM
same,TGI,[24],> 10 µM
same,TGI,[25],> 10 µM
same,TGI,[26],> 10 µM
same,TGI,[27],> 10 µM
same,TGI,[28],> 10 µM
same,TGI,[29],> 10 µM
same,TGI,[30],> 10 µM
same,TGI,[31],> 10 µM
same,TGI,[32],> 10 µM
same,TGI,[33],> 10 µM
same,TGI,[34],> 10 µM
same,TGI,[35],> 10 µM
same,TGI,[36],> 10 µM
same,TGI,[37],> 10 µM
same,TGI,[38],> 10 µM
same,TGI,[39],> 10 µM
same,TGI,[40],> 10 µM
same,TGI,[41],> 10 µM
same,TGI,[42],> 10 µM
same,TGI,[43],> 10 µM
same,TGI,[44],> 10 µM
same,TGI,[45],> 10 µM
same,TGI,[46],> 10 µM
same,TGI,[47],> 10 µM
same,TGI,[48],> 10 µM
same,TGI,[49],> 10 µM
same,TGI,[50],> 10 µM
same,TGI,[51],> 10 µM
same,TGI,[53],> 10 µM
same,TGI,[55],> 10 µM
same,TGI,[56],> 10 µM
same,TGI,[57],> 10 µM
same,TGI,[58],> 10 µM
same,TGI,[59],> 10 µM
